Assay results taken from publication PMC7924852, “The Emericellipsins A–E from an Alkalophilic Fungus Emericellopsis alkalina Show Potent Activity against Multidrug-Resistant Pathogenic Fungi” (Journal of Fungi, 2021).
Values after ≈ are worked out from the molar mass of the structure shown. Read-outs that look alike come from different tables or passages of the source. Starred links: 1 amine or outer side, 2 acyl side, 3 side chain; linkers in the order of their positions; H or OH if unused. Positions of bridges follow the written chain, without caps; N, C: chain ends. Non-standard residues stand in square brackets, D forms with d. Residues, ends and D or L forms follow the SMILES beside them. *: point of attachment. hTyr(3S-OH,4S-OH,3'-OSO3H) = N[C@H](C(=O)O)[C@H](O)[C@@H](O)c1ccc(O)c(OS(=O)(=O)O)c1; Orn(4R-OH,5R-OH) = O=C([C@H](C[C@@H](O)[C@@H](O)N[*:3])N[*:1])[*:2]; Pro(3S-OH,4S-Me) = C[C@H]1CN[C@H](C(=O)O)[C@H]1O; X1 = CCCCCOc1ccc(-c2cc(-c3ccc(C(=O)*)cc3)no2)cc1; Gln(3R-OH) = NC(=O)C[C@@H](O)[C@H](N)C(=O)O; Hyp = O=C(O)[C@@H]1C[C@@H](O)CN1

Tests used:
[1] = tested on: C. glabrata 1402; experiment: Sensititre YeastOne antifungal susceptibility test; assay type: cell-based; settings: Nakaseomyces glabratus
[2] = tested on: A. terreus 497; experiment: Sensititre YeastOne antifungal susceptibility test; assay type: cell-based; settings: Aspergillus terreus
[3] = tested on: C. krusei 1447; experiment: Sensititre YeastOne antifungal susceptibility test; assay type: cell-based; settings: Pichia kudriavzevii
[4] = tested on: Cr. laurentii 325m; experiment: Sensititre YeastOne antifungal susceptibility test; assay type: cell-based; settings: Papiliotrema laurentii
[5] = tested on: Cryptococcus neoformans 297; experiment: Sensititre YeastOne antifungal susceptibility test; assay type: cell-based
[6] = tested on: C. tropicalis 156; experiment: Sensititre YeastOne antifungal susceptibility test; assay type: cell-based; settings: Candida tropicalis
[7] = tested on: Aspergillus niger 1133m; experiment: Sensititre YeastOne antifungal susceptibility test; assay type: cell-based
[8] = tested on: A. fumigatus 390m; experiment: Sensititre YeastOne antifungal susceptibility test; assay type: cell-based; settings: Aspergillus fumigatus
[9] = tested on: C. parapsilosis 571; experiment: Sensititre YeastOne antifungal susceptibility test; assay type: cell-based; settings: Lodderomyces parapsilosis
[10] = tested on: Candida albicans 1402; experiment: Sensititre YeastOne antifungal susceptibility test; assay type: cell-based
[11] = tested on: A. terreus 3 K; experiment: Broth two-fold microdilution MIC (CLSI); assay type: cell-based; settings: A. terreus 3 K; RPMI 1640 pH 7.0, 35 °C, 48 h
[12] = tested on: reference and clinical strains of Aspergillus; experiment: Disc-diffusion antifungal assay, Aspergillus strains; assay type: cell-based; settings: disc-diffusion, reference and clinical strains of Aspergillus
[13] = tested on: A. niger 1133 m; experiment: Broth two-fold microdilution MIC (CLSI); assay type: cell-based, Aspergillus niger; settings: A. niger 1133 m clinical isolate; RPMI 1640 pH 7.0, 35 °C, 48 h
[14] = tested on: A. niger 1133 m; experiment: Disc-diffusion antifungal assay; assay type: cell-based, Aspergillus niger; settings: 40 µg/disc, pathogenic clinical isolate
[15] = tested on: Aspergillus niger ATCC 16404; experiment: Disc-diffusion antifungal assay; assay type: cell-based; settings: 40 µg/disc; A. niger ATCC 16404
[16] = tested on: A. niger ATCC 16404; experiment: Broth two-fold microdilution MIC (CLSI); assay type: cell-based, Aspergillus niger; settings: A. niger ATCC 16404; RPMI 1640 pH 7.0, 35 °C, 48 h, no visible growth
[17] = tested on: A. terreus 3 K; experiment: Disc-diffusion antifungal assay; assay type: cell-based; settings: 40 µg/disc
[18] = tested on: A. fumigatus 390 m; experiment: Disc-diffusion antifungal assay; assay type: cell-based, Aspergillus fumigatus; settings: 40 µg/disc, pathogenic clinical isolate
[19] = tested on: A. fumigatus VKM F-37; experiment: Broth two-fold microdilution MIC (CLSI); assay type: cell-based, Aspergillus fumigatus; settings: A. fumigatus VKM F-37; RPMI 1640 pH 7.0, 35 °C, 48 h
[20] = tested on: A. terreus 497; experiment: Broth two-fold microdilution MIC (CLSI); assay type: cell-based; settings: A. terreus 497 clinical isolate; RPMI 1640 pH 7.0, 35 °C, 48 h
[21] = tested on: A. fumigatus 390 m; experiment: Broth two-fold microdilution MIC (CLSI); assay type: cell-based, Aspergillus fumigatus; settings: A. fumigatus 390 m clinical isolate; RPMI 1640 pH 7.0, 35 °C, 48 h
[22] = tested on: A. terreus 497; experiment: Disc-diffusion antifungal assay; assay type: cell-based; settings: 40 µg/disc; A. terreus 497, pathogenic clinical isolate
[23] = tested on: A. fumigatus VKM F-37; experiment: Disc-diffusion antifungal assay; assay type: cell-based, Aspergillus fumigatus; settings: 40 µg/disc
[24] = Sensititre YeastOne, C. glabrata 1402 clinical isolate, read-out: MIC
[25] = Sensititre YeastOne, A. terreus 497 clinical isolate, read-out: MIC
[26] = Sensititre YeastOne, C. krusei 1447 clinical isolate, read-out: MIC
[27] = Sensititre YeastOne, Cr. laurentii 325m clinical isolate, read-out: MIC
[28] = Sensititre YeastOne, Cryptococcus neoformans 297 clinical isolate, read-out: MIC
[29] = Sensititre YeastOne, C. tropicalis 156 clinical isolate, read-out: MIC
[30] = Sensititre YeastOne, Aspergillus niger 1133m clinical isolate, read-out: MIC
[31] = Sensititre YeastOne, A. fumigatus 390m clinical isolate, read-out: MIC
[32] = Sensititre YeastOne, C. parapsilosis 571 clinical isolate, read-out: MIC
[33] = Sensititre YeastOne, Candida albicans 1402 clinical isolate, read-out: MIC

CC(=O)N1CCN(c2ccc(OCC3COC(Cn4ccnc4)(c4ccc(Cl)cc4Cl)O3)cc2)CC1 (centres unmarked) [KZ, ketoconazole]
MIC [1]; 1402: 4 µg/mL (≈ 7.53 µM) | MIC [2]; 497: 8 µg/mL (≈ 15.1 µM) | MIC [3]; 1447: 0.5 µg/mL (≈ 0.941 µM) | MIC ([4]; 325M): 0.12 µg/mL (≈ 0.226 µM) | MIC ([5]; Cryptococcus neoformans, 297): 0.06 µg/mL (≈ 0.113 µM) | MIC [6]; 156: 0.5 µg/mL (≈ 0.941 µM) | MIC ([7]; Aspergillus niger, 1133M): 16 µg/mL (≈ 30.1 µM) | MIC ([8]; 390M): 8 µg/mL (≈ 15.1 µM) | MIC [9]; 571: 0.5 µg/mL (≈ 0.941 µM) | MIC ([10]; Candida albicans, 1402): 4 µg/mL (≈ 7.53 µM)

CCCCCOc1ccc(-c2cc(-c3ccc(C(=O)N[C@H]4C[C@@H](O)[C@@H](O)NC(=O)[C@@H]5[C@@H](O)[C@@H](C)CN5C(=O)[C@H]([C@H](O)CC(N)=O)NC(=O)[C@H]([C@H](O)[C@@H](O)c5ccc(O)c(OS(=O)(=O)O)c5)NC(=O)[C@@H]5C[C@@H](O)CN5C(=O)[C@H]([C@@H](C)O)NC4=O)cc3)no2)cc1 [MF, micafungin] (X1-[Orn(4R-OH,5R-OH)]T[Hyp][hTyr(3S-OH,4S-OH,3'-OSO3H)][Gln(3R-OH)][Pro(3S-OH,4S-Me)]; lactam 1-C)
MIC [1]; 1402: 0.015 µg/mL (≈ 0.0118 µM) | MIC [2]; 497: > 8 µg/mL | MIC [3]; 1447: 0.12 µg/mL (≈ 0.0945 µM) | MIC ([4]; 325M): > 8 µg/mL | MIC ([5]; Cryptococcus neoformans, 297): > 8 µg/mL | MIC [6]; 156: 0.03 µg/mL (≈ 0.0236 µM) | MIC ([7]; Aspergillus niger, 1133M): > 8 µg/mL | MIC ([8]; 390M): > 8 µg/mL | MIC [9]; 571: 1 µg/mL (≈ 0.787 µM) | MIC ([10]; Candida albicans, 1402): 0.03 µg/mL (≈ 0.0236 µM)

CC[C@@H]([C@H](C)O)n1ncn(-c2ccc(N3CCN(c4ccc(OC[C@@H]5CO[C@@](Cn6cncn6)(c6ccc(F)cc6F)C5)cc4)CC3)cc2)c1=O [PZ, posaconazole]
MIC [1, 24]: > 8 µg/mL | MIC [2, 25]: 0.12 µg/mL (≈ 0.171 µM) | MIC [3, 26]: 0.5 µg/mL (≈ 0.713 µM) | MIC [4, 27]: 1 µg/mL (≈ 1.43 µM) | MIC [5, 28]: 0.25 µg/mL (≈ 0.357 µM) | MIC [6, 29]: > 8 µg/mL | MIC [7, 30]: 0.5 µg/mL (≈ 0.713 µM) | MIC [8, 31]: 0.25 µg/mL (≈ 0.357 µM) | MIC [9, 32]: 1 µg/mL (≈ 1.43 µM) | MIC [10, 33]: 0.5 µg/mL (≈ 0.713 µM)

C[C@@H](c1ncncc1F)[C@](O)(Cn1cncn1)c1ccc(F)cc1F [VOR, voriconazole]
MIC [1, 24]: 8 µg/mL (≈ 22.9 µM) | MIC [2, 25]: 0.25 µg/mL (≈ 0.716 µM) | MIC [3, 26]: 1 µg/mL (≈ 2.86 µM) | MIC [4, 27]: 0.5 µg/mL (≈ 1.43 µM) | MIC [5, 28]: 0.25 µg/mL (≈ 0.716 µM) | MIC [6, 29]: 4 µg/mL (≈ 11.5 µM) | MIC [7, 30]: 8 µg/mL (≈ 22.9 µM) | MIC [8, 31]: 0.5 µg/mL (≈ 1.43 µM) | MIC [9, 32]: 1 µg/mL (≈ 2.86 µM) | MIC [10, 33]: 1 µg/mL (≈ 2.86 µM)

Methyldecanoyl-MePro-AHMOD-Ser-Aib-Ile-Iva-βAla-Alaol-Glyol [EmiC, emericellipsin C, homologue of emericellipsin A, nonribosomal peptaibol]
Minimal Inhibitory Concentration (MIC) [11]: 8 µg/mL | antifungal activity against Aspergillus strains (in words) [12]: low activity only against A. niger strains | Minimal Inhibitory Concentration (MIC) [13]: 32 µg/mL | Zone of Inhibition [14]: 0 mm | Zone of Inhibition [15]: 9 ± 0.31 mm | Minimal Inhibitory Concentration (MIC) [16]: 32 µg/mL | Zone of Inhibition [17]: 0 mm | Zone of Inhibition [18]: 0 mm | Minimal Inhibitory Concentration (MIC) [19]: 16 µg/mL | Minimal Inhibitory Concentration (MIC) [20]: 8 µg/mL | Minimal Inhibitory Concentration (MIC) [21]: 16 µg/mL | Zone of Inhibition [22]: 0 mm | Zone of Inhibition [23]: 0 mm
